Test results reported in ChEMBL document CHEMBL5532738, “Chiral Me-2-arachidonoyl Glycerols: The First Potent Endocannabinoid Glyceride Templates with Stability to COX-2” (ACS Med Chem Lett, 2024).

Experiments:
Format in all cases: functional, cell-based
[1] = target: Cannabinoid receptor 1 (Rattus norvegicus) (UniProt P20272); assay: Agonist activity at rat CB1 receptor stably expressed in HEK293 cells assessed as inhibition of forskolin-stimulated cAMP accumulation incubated for 5 mins by Lance Ultra cAMP assay relative to control; details: filed as agonist
Cannabinoid receptor 1 (Rattus norvegicus), sequence (P20272 whole entry): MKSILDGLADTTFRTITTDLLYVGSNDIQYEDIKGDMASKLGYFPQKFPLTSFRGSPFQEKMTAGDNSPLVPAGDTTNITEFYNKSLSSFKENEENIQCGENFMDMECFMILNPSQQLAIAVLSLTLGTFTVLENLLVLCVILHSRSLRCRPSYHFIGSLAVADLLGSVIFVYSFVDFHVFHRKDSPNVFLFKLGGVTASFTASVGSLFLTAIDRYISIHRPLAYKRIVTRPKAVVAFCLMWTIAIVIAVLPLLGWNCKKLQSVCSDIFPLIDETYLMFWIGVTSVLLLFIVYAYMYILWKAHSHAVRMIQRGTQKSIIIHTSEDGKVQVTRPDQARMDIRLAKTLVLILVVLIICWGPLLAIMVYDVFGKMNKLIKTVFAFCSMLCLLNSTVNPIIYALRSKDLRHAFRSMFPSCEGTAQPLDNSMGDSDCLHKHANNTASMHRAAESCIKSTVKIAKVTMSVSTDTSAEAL

Cannabinoid receptor 2 = Cannabinoid receptor 2 (Mus musculus, UniProt P47936); assay: Agonist activity at mouse CB2 receptor stably expressed in HEK293 cells assessed as inhibition of forskolin-stimulated cAMP accumulation incubated for 5 mins by Lance Ultra cAMP assay
Cannabinoid receptor 2, sequence (P47936 whole entry): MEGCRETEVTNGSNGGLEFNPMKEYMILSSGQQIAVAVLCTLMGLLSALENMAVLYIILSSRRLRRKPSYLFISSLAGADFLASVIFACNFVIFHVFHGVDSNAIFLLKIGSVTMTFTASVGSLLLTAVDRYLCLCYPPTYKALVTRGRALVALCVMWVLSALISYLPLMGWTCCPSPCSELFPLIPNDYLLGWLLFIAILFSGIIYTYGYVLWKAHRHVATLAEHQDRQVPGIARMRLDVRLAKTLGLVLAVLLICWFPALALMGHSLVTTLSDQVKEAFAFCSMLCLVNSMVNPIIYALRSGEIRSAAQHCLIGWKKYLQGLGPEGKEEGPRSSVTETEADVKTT

[2] = target: Cannabinoid receptor 2 (Mus musculus) (UniProt P47936); assay: Agonist activity at mouse CB2 receptor stably expressed in HEK293 cells assessed as inhibition of forskolin-stimulated cAMP accumulation incubated for 5 mins by Lance Ultra cAMP assay relative to control
Cannabinoid receptor 2 (Mus musculus), sequence (P47936 whole entry): as above

Cannabinoid receptor 1 = Cannabinoid receptor 1 (Rattus norvegicus, UniProt P20272); assay: Agonist activity at rat CB1 receptor stably expressed in HEK293 cells assessed as inhibition of forskolin-stimulated cAMP accumulation incubated for 5 mins by Lance Ultra cAMP assay
Cannabinoid receptor 1, sequence (P20272 whole entry): as the sequence (P20272 whole entry) above

| SMILES | Emax [1] [%] | EC50 (Cannabinoid receptor 2) [µM] | Emax [2] [%] | Emax ([2]; filed as agonist) [%] | EC50 (Cannabinoid receptor 1) [µM] |
| --- | --- | --- | --- | --- | --- |
| CCCCC/C=C\C/C=C\C/C=C\C/C=C\CCCC(=O)OC(CO)CO [2-ARACHIDONOYLGLYCEROL] | 47.7 | 0.018 | 35.2 |  |  |
| CCCCCCC(C)(C)c1ccc([C@@H]2C[C@H](O)CC[C@H]2CCCO)c(O)c1 [CP-55940] | 67.1 | 0.007 |  | 54.4 |  |
| CCCCC/C=C\[C@@H](C)/C=C\C/C=C\C/C=C\CCCC(=O)OC(CO)CO | 51.6 | 0.05 |  | 42.8 | 0.007 |
| CCCCC/C=C\C/C=C\C/C=C\[C@@H](C)/C=C\CCCC(=O)OC(CO)CO | 74.8 |  | < 1 |  | 0.0346 |
| CCCCC/C=C\C/C=C\C/C=C\[C@H](C)/C=C\CCCC(=O)OC(CO)CO | 48.7 | 0.006 | 24.6 |  | 0.0231 |
| CCCCC/C=C\[C@H](C)/C=C\C/C=C\C/C=C\CCCC(=O)OC(CO)CO | 51.2 | 0.053 |  | 50.1 | 0.017 |
